In patent US20250034216A1, “STEREOSELECTIVE COVALENT LIGANDS FOR ONCOGENIC AND IMMUNOLOGICAL PROTEINS” (The Scripps Research Institute, priority 2021, published 2025):

How the values were obtained:
Assay in all cases: IA-DTB cysteine engagement
Type in all cases: binding
Details in all cases: 22Rv1 cells, 20 μM probe, 1 h, relative to DMSO
CUL5_C112 = target: T1, CUL5_C112 (Homo sapiens, UniProt Q93034)
T1 construct: endogenous in cells; host or cells: 22Rv1
T1 sequence (Q93034 1-780): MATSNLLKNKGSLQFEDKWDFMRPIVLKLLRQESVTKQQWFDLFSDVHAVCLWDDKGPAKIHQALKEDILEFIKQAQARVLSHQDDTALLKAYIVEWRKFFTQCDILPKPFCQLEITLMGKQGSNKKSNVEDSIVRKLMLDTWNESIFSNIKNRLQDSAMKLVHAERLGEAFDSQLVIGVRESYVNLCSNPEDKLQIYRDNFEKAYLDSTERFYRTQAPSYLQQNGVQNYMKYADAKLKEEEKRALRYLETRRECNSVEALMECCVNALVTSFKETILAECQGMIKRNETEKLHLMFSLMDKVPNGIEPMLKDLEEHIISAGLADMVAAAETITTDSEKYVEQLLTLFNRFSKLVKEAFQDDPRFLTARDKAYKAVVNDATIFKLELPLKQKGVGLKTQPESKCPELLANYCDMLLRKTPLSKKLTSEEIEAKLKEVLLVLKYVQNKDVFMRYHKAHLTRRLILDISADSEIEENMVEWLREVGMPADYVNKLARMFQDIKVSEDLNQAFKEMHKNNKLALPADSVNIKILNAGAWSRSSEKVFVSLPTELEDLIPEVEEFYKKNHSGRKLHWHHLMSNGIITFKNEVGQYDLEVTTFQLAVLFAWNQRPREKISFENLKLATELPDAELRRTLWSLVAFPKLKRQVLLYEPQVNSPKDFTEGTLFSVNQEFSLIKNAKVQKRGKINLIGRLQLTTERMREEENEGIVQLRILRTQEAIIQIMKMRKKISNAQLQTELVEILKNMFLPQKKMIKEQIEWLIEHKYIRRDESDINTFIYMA
Method in brief: (§1)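 In-situ probe treatment of cells; lysate 2 mg/mL, IA-DTB 1 h RT; MeOH/CHCl3 precipitation, DTT/iodoacetamide, trypsin; streptavidin enrichment; TMT labeling, high-pH fractionation. Ratio = TMT reporter intensity / mean DMSO channels, median-normalized.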

CKAP4_C100 = target: T2, CKAP4_C100 (Homo sapiens, UniProt Q07065)
T2 construct: endogenous in cells; host or cells: 22Rv1
T2 sequence (Q07065 1-602): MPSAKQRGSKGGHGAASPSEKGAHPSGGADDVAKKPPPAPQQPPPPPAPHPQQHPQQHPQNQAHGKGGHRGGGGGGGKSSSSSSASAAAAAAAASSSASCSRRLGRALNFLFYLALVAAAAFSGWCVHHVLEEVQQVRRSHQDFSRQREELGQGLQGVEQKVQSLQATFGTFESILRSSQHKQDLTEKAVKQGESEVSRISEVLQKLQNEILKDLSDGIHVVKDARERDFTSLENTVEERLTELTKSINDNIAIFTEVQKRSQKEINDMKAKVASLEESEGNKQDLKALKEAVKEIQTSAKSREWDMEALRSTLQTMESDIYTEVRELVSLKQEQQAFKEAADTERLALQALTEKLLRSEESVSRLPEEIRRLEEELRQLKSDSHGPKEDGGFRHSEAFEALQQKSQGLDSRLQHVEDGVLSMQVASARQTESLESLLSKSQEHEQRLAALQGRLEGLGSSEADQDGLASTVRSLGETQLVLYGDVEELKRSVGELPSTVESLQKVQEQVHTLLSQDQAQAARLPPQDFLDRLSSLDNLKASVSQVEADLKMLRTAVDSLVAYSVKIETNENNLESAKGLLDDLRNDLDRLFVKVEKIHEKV
Method in brief: as §1

TANC1_C800 = target: T3, TANC1_C800 (Homo sapiens, UniProt Q9C0D5)
T3 construct: endogenous in cells; host or cells: 22Rv1
T3 sequence (Q9C0D5 whole entry): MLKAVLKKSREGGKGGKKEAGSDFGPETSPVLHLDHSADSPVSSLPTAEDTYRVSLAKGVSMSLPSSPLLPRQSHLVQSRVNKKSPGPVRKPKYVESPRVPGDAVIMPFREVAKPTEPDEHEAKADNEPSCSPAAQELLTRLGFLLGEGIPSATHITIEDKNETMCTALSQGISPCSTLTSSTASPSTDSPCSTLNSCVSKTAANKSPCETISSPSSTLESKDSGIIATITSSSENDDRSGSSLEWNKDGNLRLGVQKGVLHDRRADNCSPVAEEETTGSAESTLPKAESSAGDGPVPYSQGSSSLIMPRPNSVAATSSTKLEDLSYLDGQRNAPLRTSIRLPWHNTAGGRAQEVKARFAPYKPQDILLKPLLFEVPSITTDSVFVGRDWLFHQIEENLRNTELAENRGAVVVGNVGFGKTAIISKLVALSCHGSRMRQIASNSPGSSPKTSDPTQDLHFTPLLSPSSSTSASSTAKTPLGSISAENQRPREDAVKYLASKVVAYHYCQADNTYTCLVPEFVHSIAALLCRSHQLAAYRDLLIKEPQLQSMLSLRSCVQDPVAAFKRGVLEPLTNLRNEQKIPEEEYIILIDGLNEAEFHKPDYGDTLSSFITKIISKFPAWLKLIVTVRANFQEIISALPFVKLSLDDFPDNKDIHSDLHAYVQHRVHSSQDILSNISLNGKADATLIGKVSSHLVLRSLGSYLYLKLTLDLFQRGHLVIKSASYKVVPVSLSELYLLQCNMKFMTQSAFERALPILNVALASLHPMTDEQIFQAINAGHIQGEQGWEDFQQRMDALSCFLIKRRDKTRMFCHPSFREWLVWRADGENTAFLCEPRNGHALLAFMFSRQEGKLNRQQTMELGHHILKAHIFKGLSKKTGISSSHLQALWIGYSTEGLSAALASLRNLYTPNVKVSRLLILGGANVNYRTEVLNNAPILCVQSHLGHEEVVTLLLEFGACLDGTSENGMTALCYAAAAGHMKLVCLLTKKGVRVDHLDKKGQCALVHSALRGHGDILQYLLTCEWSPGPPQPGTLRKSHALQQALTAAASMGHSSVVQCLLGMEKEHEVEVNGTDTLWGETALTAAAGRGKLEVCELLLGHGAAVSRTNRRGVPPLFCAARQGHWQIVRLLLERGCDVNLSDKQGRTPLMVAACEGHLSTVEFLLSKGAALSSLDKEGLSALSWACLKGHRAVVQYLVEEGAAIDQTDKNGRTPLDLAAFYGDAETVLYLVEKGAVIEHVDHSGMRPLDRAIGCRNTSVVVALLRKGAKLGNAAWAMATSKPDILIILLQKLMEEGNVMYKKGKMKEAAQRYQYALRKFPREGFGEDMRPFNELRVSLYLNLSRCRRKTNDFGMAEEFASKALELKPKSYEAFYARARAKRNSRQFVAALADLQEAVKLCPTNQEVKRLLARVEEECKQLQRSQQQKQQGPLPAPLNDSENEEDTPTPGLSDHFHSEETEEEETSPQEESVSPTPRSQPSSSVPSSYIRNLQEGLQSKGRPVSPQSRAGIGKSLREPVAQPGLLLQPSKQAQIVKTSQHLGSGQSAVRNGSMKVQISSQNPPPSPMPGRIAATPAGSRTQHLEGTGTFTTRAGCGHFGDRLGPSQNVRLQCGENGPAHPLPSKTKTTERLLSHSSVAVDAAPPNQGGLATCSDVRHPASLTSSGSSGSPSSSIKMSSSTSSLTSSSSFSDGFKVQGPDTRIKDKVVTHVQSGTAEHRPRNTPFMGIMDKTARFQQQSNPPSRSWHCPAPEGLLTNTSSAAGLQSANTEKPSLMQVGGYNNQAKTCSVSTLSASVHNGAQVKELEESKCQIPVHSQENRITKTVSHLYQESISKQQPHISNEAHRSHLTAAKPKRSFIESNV
Method in brief: as §1

Row | SMILES | % engagement CUL5_C112 (CUL5_C112) [%] | % engagement CKAP4_C100 (CKAP4_C100) [%] | % engagement TANC1_C800 (TANC1_C800) [%]
1 | C=CC(=O)N1C[C@@H](c2ccc(Br)cc2)[C@H]1C(=O)Nc1cccc2cccnc12 [MY-1A, (2S,3R)-1-acryloyl-3-(4-bromophenyl)-N-(quinolin-8-yl)azetidine-2-carboxamide] | 95.5 | 84 | −2
2 | C=CC(=O)N1C[C@H](c2ccc(Br)cc2)[C@@H]1C(=O)Nc1cccc2cccnc12 [MY-1B, (2R,3S)-1-acryloyl-3-(4-bromophenyl)-N-(quinolin-8-yl)azetidine-2-carboxamide] | 11 | 90.25 | 3
3 | C=CC(=O)N1C[C@H](c2ccc(Br)cc2)[C@H]1C(=O)Nc1cccc2cccnc12 [MY-3A, (2S,3S)-1-acryloyl-3-(4-bromophenyl)-N-(quinolin-8-yl)azetidine-2-carboxamide] | −14.75 | 78.75 | 12.5
4 | C=CC(=O)N1C[C@H](c2ccc(Br)cc2)[C@H]1C(=O)Nc1cccc2cccnc12 [MY-3B, (2S,3S)-1-acryloyl-3-(4-bromophenyl)-N-(quinolin-8-yl)azetidine-2-carboxamide] | −20 | 93.75 | 83.5
